The values below come from patent US20120022164A1, “EXTERNAL PREPARATION COMPRISING PROSTAGLANDIN DERIVATIVE” (TAISHO PHARMACEUTICAL CO., LTD., priority 2006, published 2012).

Read-outs that look alike come from different tables or passages of the source. Some results are limits rather than exact numbers.

Data set [1] is described as follows: Solubility of compound of formula II in cyclodextrin aqueous solutions (Test Example 7). The class given is physicochemical. The following applies: for solubility at 24 h: 25 °C, aqueous with cosolvent or surfactant or cyclodextrin, thermodynamic from solid. The procedure:
A complex containing the compound of formula II and the cyclodextrin can be obtained by grinding a block prepared by freeze-drying a solution which is obtained by dissolving the both into water. In order to examine the minimum content (formulation amount) of cyclodextrin required to obtain the complex, solubility of the compound of formula II in cyclodextrin aqueous solutions which have different concentrations of and different types of cyclodextrin was measured. That is, cyclodextrin aqueous solutions of various concentrations were prepared by dissolving α-cyclodextrin, β-cyclodextrin, γ-cyclodextrin or hydroxypropyl-β-cyclodextrin into water. After each solution was poured into a test tube, the compound of formula II was added excessively. The test tube was shaken in a water bath at 25° C. for 24 hours, and a concentration of the dissolved compound of formula II was quantified with high-performance liquid chromatography (Equipment: LC10VP series manufactured by SHIMADZU CORPORATION, Column: Develosil ODS-HG-5 manufactured by Nomura Chemical Co., Ltd., Inner diameter: 4.6 mm, Length: 15 cm, Column temperature: 40° C., Mobile phase: mixed solution of water/acetonitrile/phosphoric acid (550:450:1), Flow rate: 1 mL/min, Detection wavelength: 200 nm). With this, solubility of the compound of formula II and molar ratio of the compound of formula II and each type of cyclodextrin were calculated.
Note that, for calculation of the molar ratios, molecular weights of the compound of formula II, α-cyclodextrin, β-cyclodextrin, γ-cyclodextrin and hydroxypropyl-β-cyclodextrin were set to 420.99, 972.84, 1134.98, 1297.12 and 1506.69, respectively.

The nature of a further data set: Solubility in water. The following applies: water at 25° C. The class given is physicochemical.
For data set [2] the following is noted: cited from earlier work; for Solubility in water: cyclodextrins, water at 25° C.

Turning to `O=C(O)CSCCCC[C@@H]1[C@@H](C#C[C@@H](O)C2CCCCC2)[C@H](O)C[C@H]1Cl` [compound of formula II], the “Solubility of compound of formula II (mg/mL)” value is reported as > 0.10* mg/mL in data set [1] (hydroxypropyl-β-cyclodextrin 0.25% by mass in water, 25° C., * completely dissolved, actual solubility assumed much higher); > 2.0* mg/mL in data set [1] (hydroxypropyl-β-cyclodextrin 5% by mass in water, 25° C., * completely dissolved, actual solubility assumed much higher); > 3.0* mg/mL in data set [1] (hydroxypropyl-β-cyclodextrin 10% by mass in water, 25° C., * completely dissolved, actual solubility assumed much higher). Besides, the solubility at 24 h in data set [1] (α-cyclodextrin aqueous solution, α-cyclodextrin 1% by mass in water, 25° C., 24 hours, read-out: Solubility of compound of formula II) is 110 µg/mL; in data set [1] (α-cyclodextrin aqueous solution, α-cyclodextrin 2% by mass in water, 25° C., 24 hours, read-out: Solubility of compound of formula II), 170 µg/mL; in data set [1] (α-cyclodextrin aqueous solution, α-cyclodextrin 5% by mass in water, 25° C., 24 hours, read-out: Solubility of compound of formula II), 500 µg/mL; in data set [1] (α-cyclodextrin aqueous solution, α-cyclodextrin 10% by mass in water, 25° C., 24 hours, read-out: Solubility of compound of formula II), 1220 µg/mL; in data set [1] (α-cyclodextrin aqueous solution, α-cyclodextrin 12% by mass in aqueous solution, 25° C. (FIG. 1), read-out: Solubility of the compound of formula II), 1520 µg/mL; in data set [1] (β-cyclodextrin aqueous solution, β-cyclodextrin 1% by mass in water, 25° C., 24 hours, read-out: Solubility of compound of formula II) it was less than 100 µg/mL. Also, the solubility at 24 h is greater than 200 µg/mL in data set [1] (β-cyclodextrin aqueous solution, β-cyclodextrin 2% by mass in water, 25° C., * completely dissolved, actual solubility assumed much higher, read-out: Solubility of compound of formula II); greater than 50 µg/mL in data set [1] (γ-cyclodextrin aqueous solution, γ-cyclodextrin 0.1% by mass in water, 25° C., * completely dissolved, actual solubility assumed much higher, read-out: Solubility of compound of formula II); 170 µg/mL in data set [1] (γ-cyclodextrin aqueous solution, γ-cyclodextrin 1% by mass in water, 25° C., 24 hours, read-out: Solubility of compound of formula II); 120 µg/mL in data set [1] (γ-cyclodextrin aqueous solution, γ-cyclodextrin 5% by mass in water, 25° C., 24 hours, read-out: Solubility of compound of formula II). In addition, the “Compound of formula II: cyclodextrin (molar ratio)” value in data set [1] (γ-cyclodextrin 5% by mass) is reported as 0.1396. In “Solubility in water”, this compound registered a solubility of roughly 60 µg/mL.

In the case of `OC[C@H]1O[C@@H]2O[C@H]3[C@H](O)[C@@H](O)[C@@H](O[C@H]4[C@H](O)[C@@H](O)[C@@H](O[C@H]5[C@H](O)[C@@H](O)[C@@H](O[C@H]6[C@H](O)[C@@H](O)[C@@H](O[C@H]7[C@H](O)[C@@H](O)[C@@H](O[C@H]1[C@H](O)[C@H]2O)O[C@@H]7CO)O[C@@H]6CO)O[C@@H]5CO)O[C@@H]4CO)O[C@@H]3CO` [α-cyclodextrin], the Solubility in water entry in data set [2] is “approximately 14%”. Also, the “Solubility of α-cyclodextrin in water” value in data set [2] (water) is “approximately 14 % by mass”.

Take `OC[C@H]1O[C@@H]2O[C@H]3[C@H](O)[C@@H](O)[C@@H](O[C@H]4[C@H](O)[C@@H](O)[C@@H](O[C@H]5[C@H](O)[C@@H](O)[C@@H](O[C@H]6[C@H](O)[C@@H](O)[C@@H](O[C@H]7[C@H](O)[C@@H](O)[C@@H](O[C@H]8[C@H](O)[C@@H](O)[C@@H](O[C@H]1[C@H](O)[C@H]2O)O[C@@H]8CO)O[C@@H]7CO)O[C@@H]6CO)O[C@@H]5CO)O[C@@H]4CO)O[C@@H]3CO` [β-cyclodextrin]: in data set [2], the Solubility in water entry is recorded as “approximately 2%”.

Take hydroxypropyl-β-cyclodextrin: the Solubility in water entry in data set [2] was “approximately 22%”.

For orientation: solubility means the concentration that dissolves in the medium under given conditions.
